The text below walks through data of patent US20260226037A1, “MICROTUBULE TARGETING AGENTS” (ARIEL SCIENTIFIC INNOVATIONS LTD., priority 2022, published 2026).

For one assay, the system named is MES-SA/DX5 cells. The assay can be described thus: XTT cytotoxicity, MES-SA/DX5. The assay is classed as cell-based. The settings on record: for IC50: MES-SA/DX5, uterine sarcoma, P-gp overexpression; for IC50 ratio between resistant and non-resistant cells: MES-SA/DX5 / MES-SA; for effectiveness in subline overexpressing PgP: MES-SA/DX5 vs MES-SA. The protocol: (§1) The cytotoxic activity of the novel family was evaluated against various tumor cells, including myeloma cells, acute lymphoblastic leukemia cells, acute monocytic leukemia cells, chronic myelogenous leukemia cells, pancreatic cancer cells, breast cancer cells, uterine sarcoma cells, cervix adenocarcinoma cells, ovary cancer cells, melanoma cells, osteosarcoma cells, prostate cancer cells, lung cancer cells, neuroblastoma cells and colorectal adenocarcinoma cells by XTT assay.
On the technique in general: Tetrazolium dyes change colour on reduction, which living cells bring about.

The next assay deals with N6/ADR cells. Description: XTT cytotoxicity, N6/ADR. The assay is classed as cell-based. The settings on record: for IC50 ratio between resistant and non-resistant cells: N6/ADR / NALM6; for sensitivity to Pgp glycoprotein overexpression: N6/ADR vs NALM6 dose response; for IC50: N6/ADR, acute lymphoblastic leukemia, P-gp overexpression, read-out: IC50. On the procedure:
as §1
(§2) Most tubulin-binding anticancer drugs currently used in the clinic are substrates for Pgp effux pump. […] The inventors tested the viability of NALM6 acute lymphoblastic leukemia cell line (ALL) and its corresponding doxorubicin resistant N6/ADR cell line that overexpress Pgp glycoprotein and has cross-resistance to vincristine.

In another assay the test system is MM1.S cells. Description: XTT cytotoxicity, MM1.S. The note with it: multiple myeloma, non-resistant, read-out: IC50. The assay is classed as cell-based. The protocol:
as §1

Another assay relates to NALM6 cells. The assay can be described thus: XTT cytotoxicity, NALM6. The settings on record: NALM6, acute lymphoblastic leukemia, non-resistant, read-out: IC50. The assay is classed as cell-based. On the procedure:
as §1, §2

For the next assay, the system named is A2780 cells. The assay can be described thus: XTT cytotoxicity, A2780. The settings on record: A2780, ovarian carcinoma, non-resistant. The assay is classed as cell-based. On the procedure:
as §1

In a further assay the test system is RPMI-DOX40 cells. Description: XTT cytotoxicity, RPMI-DOX40. The assay is classed as cell-based. The settings on record: for IC50: RPMI-DOX40, multiple myeloma, P-gp overexpression, read-out: IC50; for IC50 ratio between resistant and non-resistant cells: RPMI-DOX40 / RPMI 8226. The protocol:
as §1

In another assay the test system is NCI-H69 cells. The assay can be described thus: XTT cytotoxicity, NCI-H69. The assay is classed as cell-based. The settings on record: NCI-H69, small cell lung carcinoma, non-resistant. On the procedure: as §1
For a further assay, the system named is MES-SA cells. The assay can be described thus: XTT cytotoxicity, MES-SA. The assay is classed as cell-based. The settings on record: poorly differentiated uterine sarcoma, non-resistant. On the procedure: as §1
In the next assay the test system is NCI-H69 VCR/R cells. Description: XTT cytotoxicity, NCI-H69 VCR/R. The assay is classed as cell-based. The note with it: for IC50 ratio between resistant and non-resistant cells: NCI-H69 VCR/R / NCI-H69; for IC50: NCI-H69 VCR/R, vincristine resistant. On the procedure: as §1
The test system of a further assay is MM1.R cells. The assay can be described thus: XTT cytotoxicity, MM1.R. The note with it: for IC50: MM1.R, multiple myeloma, dexamethasone resistant, read-out: IC50; for IC50 ratio between resistant and non-resistant cells: MM1.R / MM1.S. The assay is classed as cell-based. On the procedure:
as §1

In the next assay the test system is RPMI-LR5 cells. Description: XTT cytotoxicity, RPMI-LR5. The assay is classed as cell-based. The settings on record: for IC50: RPMI-LR5, multiple myeloma, melphalan resistant, read-out: IC50; for IC50 ratio between resistant and non-resistant cells: RPMI-LR5 / RPMI 8226. On the procedure: as §1
Another assay relates to A2780ADR cells. The assay can be described thus: XTT cytotoxicity, A2780ADR. The assay is classed as cell-based. The settings on record: for IC50 ratio between resistant and non-resistant cells: A2780ADR / A2780; for IC50: A2780ADR, ovarian carcinoma, resistant. The protocol:
as §1

The next assay concerns RPMI 8226 cells. Description: XTT cytotoxicity, RPMI 8226. The assay is classed as cell-based. The settings on record: RPMI 8226, multiple myeloma, non-resistant, read-out: IC50. The protocol: as §1
A further assay relates to MCF7-VP cells. The assay can be described thus: XTT cytotoxicity, MCF7-VP. The assay is classed as cell-based. The note with it: for IC50: Homo sapiens, MCF7-VP, breast adenocarcinoma, MRP overexpression; for IC50 ratio between resistant and non-resistant cells: MCF7-VP / MCF7. On the procedure:
as §1

The next assay concerns MCF7 cells. Description: XTT cytotoxicity, MCF7. The assay is classed as cell-based. The settings on record: Homo sapiens; MCF7, breast adenocarcinoma, non-resistant. On the procedure: as §1
For the next assay, the system named is RPMI-MR20 cells. Description: XTT cytotoxicity, RPMI-MR20. The assay is classed as cell-based. The note with it: for IC50: RPMI-MR20, mitoxantrone resistant, read-out: IC50; for IC50 ratio between resistant and non-resistant cells: RPMI-MR20 / RPMI 8226. On the procedure: as §1
The test system of another assay is purified tubulin. Description: Tubulin polymerization, cell-free assay. The assay is classed as biochemical. The settings on record: tubulin 2.00 mg/mL; 1, 15 and 30 μM; 37° C., 100 min; vs vehicle. On the procedure: The effect of the compounds on their ability to inhibit tubulin polymerization, was tested against a vehicle control by evaluating polymerization of purified tubulin in a cell-free assay where tubulin (2.00 mg/mL) was exposed to vehicle control or 1, 15 and 30 μM of the compounds (n=2). Polymerizations were tracked by an increase in fluorescence excitation wavelength is 340-360 nm and emission wavelength at 410-460 nm. Fluorescence was monitored at 37° C. every 30 sec for 100 min.

For assay [1], the system named is colchicine binding site on tubulin protein. Description: EBI competition assay, RPMI-8226 cells. The assay is classed as cell-based. The settings on record: RPMI-8226 living cells.

Read-outs that look alike come from different tables or passages of the source. Where a SMILES comes first, the peptide text is derived from it. [ ]: non-standard residue; d: D form. The star is where a group is joined. Dolaproine = CO[C@@H]([C@@H]1CCCN1)[C@@H](C)C(=O)O; Dil = CC[C@H](C)[C@H](NC)[C@@H](CC(=O)O)OC; X1 = C[C@@H](N*)[C@@H](O)c1ccccc1; NMeV = CN[C@H](C(=O)O)C(C)C

With `CC[C@H](C)[C@@H]([C@@H](CC(=O)N1CCC[C@H]1[C@H](OC)[C@@H](C)C(=O)N[C@H](C)[C@@H](O)c1ccccc1)OC)N(C)C(=O)[C@@H](NC(=O)[C@@H](NC)C(C)C)C(C)C` [MMAE, reference compound] (H-[NMeV]V[Dil][Dolaproine]-X1), the half-maximal inhibitory concentration (IC50) in the assay on MES-SA/DX5 cells was 2740 nM; in the assay on N6/ADR cells, 0.8 nM; with MM1.S cells, less than 2.5 nM; in the assay on NALM6 cells it was 0.3 nM; with A2780 cells it was 0.8 nM; in the assay on RPMI-DOX40 cells, more than 15 nM. Further, the IC50 was 3 nM with NCI-H69 cells; 16 nM with MES-SA cells; 2 nM in the assay with NCI-H69 VCR/R cells; less than 2.5 nM in the assay on MM1.R cells; more than 15 nM with RPMI-LR5 cells; 25 nM in the assay on A2780ADR cells. In addition, the concentration for half-maximal inhibition (IC50) in the assay with RPMI 8226 cells was less than 2.5 nM. The “IC50 ratio between resistant and non-resistant cells” value was 165.037 in the assay with MES-SA/DX5 cells; 2.667 in the assay on N6/ADR cells; more than 6.000 with RPMI-DOX40 cells; 0.667 in the assay on NCI-H69 VCR/R cells; more than 6.000 in the assay on RPMI-LR5 cells; 31.250 in the assay with A2780ADR cells. For the same compound, in the assay with MES-SA/DX5 cells, the “effectiveness in subline overexpressing PgP” value (“effectiveness” below) is given as “less effective in the subline overexpressing PgP”. Also, the “sensitivity to Pgp glycoprotein overexpression” value (“sensitivity” for short) with N6/ADR cells was “sensitive to PgP”.
`CC(=O)O[C@H]1C(=O)[C@@]2(C)[C@H]([C@H](OC(=O)c3ccccc3)[C@]3(O)C[C@H](OC(=O)[C@H](O)[C@@H](NC(=O)c4ccccc4)c4ccccc4)C(C)=C1C3(C)C)[C@]1(OC(C)=O)CO[C@@H]1C[C@@H]2O` [Paqlitaxel, paclitaxel]: the IC50 was more than 1000 nM with MES-SA/DX5 cells (Homo sapiens); 24 nM in the assay with N6/ADR cells; 74 nM in the assay on MCF7-VP cells; 8.4 nM in the assay with NALM6 cells (Homo sapiens, NALM-6); 6.5 nM in the assay with A2780 cells (Homo sapiens); 59 nM in the assay on NCI-H69 cells (Homo sapiens). Further, the IC50 in the assay on MES-SA cells (Homo sapiens) is 110 nM; in the assay with MCF7 cells, 136 nM; in the assay on NCI-H69 VCR/R cells (Homo sapiens) it was more than 1000 nM; with A2780ADR cells (A2780 ADR) it was 400 nM. Also, the “IC50 ratio between resistant and non-resistant cells” value with MES-SA/DX5 cells is listed as more than 9.009; in the assay on N6/ADR cells it was 2.857; in the assay on MCF7-VP cells, 0.544; with NCI-H69 VCR/R cells, more than 16.949; with A2780ADR cells, 61.538. Also, the “effectiveness” value with MES-SA/DX5 cells is “less effective in the subline overexpressing PgP”. Besides, in the assay on N6/ADR cells, the “sensitivity” value is reported as “sensitive to PgP”.
As for `Cc1c(C(=O)OCCCCO)oc2c1C(=O)CC(c1ncco1)C2` (stereo not shown) [SMS229, 4-hydroxybutyl-3-methyl-6-(oxazol-2-yl)-4-oxo-4,5,6,7-tetrahydrobenzofuran-2-carboxylate], the 50% inhibitory concentration (IC50) with MES-SA/DX5 cells (Homo sapiens) worked out at 3190 nM; with N6/ADR cells, 670 nM; in the assay with MM1.S cells (Homo sapiens), 2050 nM; with MCF7-VP cells, 12000 nM; in the assay on NALM6 cells (Homo sapiens, NALM-6) it was 590 nM; in the assay on RPMI-DOX40 cells, 933 nM. The half-maximal inhibitory concentration (IC50) in the assay with MES-SA cells (Homo sapiens) was 4560 nM; with MCF7 cells, 33300 nM; with MM1.R cells (MM.1R), more than 1600 nM; in the assay on RPMI-MR20 cells it was 1550 nM; in the assay with RPMI-LR5 cells it was 958 nM; with RPMI 8226 cells (Homo sapiens) it was 808 nM. Besides, the “IC50 ratio between resistant and non-resistant cells” value in the assay on MES-SA/DX5 cells is listed as 0.700; in the assay with N6/ADR cells it was 1.136; in the assay with MCF7-VP cells, 0.360; in the assay on RPMI-DOX40 cells, 1.155; in the assay on MM1.R cells, more than 0.779; in the assay with RPMI-MR20 cells, 1.916. Besides, the “IC50 ratio between resistant and non-resistant cells” value with RPMI-LR5 cells is recorded as 1.186. In the assay with purified tubulin, the “rate of tubulin polymerization” value was “inhibited the rate of tubulin polymerization in a concentration-dependent manner”. Also, in assay [1], the “prevention of covalent binding of EBI to the colchicine binding site” value is “prevented the covalent binding of EBI to the colchicine binding site”.
For the compound `CC[C@]1(O)C[C@H]2CN(CCc3c([nH]c4ccccc34)[C@@](C(=O)OC)(c3cc4c(cc3OC)N(C=O)[C@H]3[C@@](O)(C(=O)OC)[C@H](OC(C)=O)[C@]5(CC)C=CCN6CC[C@]43[C@@H]65)C2)C1` [Vincristine, reference compound], the IC50 is 3680 nM in the assay with MES-SA/DX5 cells (Homo sapiens); 12 nM with N6/ADR cells; 1.6 nM in the assay with MM1.S cells (Homo sapiens); 220 nM in the assay on MCF7-VP cells; 1.1 nM with NALM6 cells (Homo sapiens, NALM-6); 3 nM in the assay on A2780 cells (Homo sapiens). Further, the concentration for half-maximal inhibition (IC50) is more than 10 nM with RPMI-DOX40 cells; 24 nM in the assay with NCI-H69 cells (Homo sapiens); 999 nM in the assay with MES-SA cells (Homo sapiens); 78 nM in the assay with MCF7 cells; more than 1000 nM with NCI-H69 VCR/R cells (Homo sapiens); 1.7 nM in the assay with MM1.R cells (MM.1R). Further, the IC50 is 0.3 nM with RPMI-MR20 cells, more than 4 nM in the assay with RPMI-LR5 cells, 231 nM in the assay with A2780ADR cells (A2780 ADR) and 1.9 nM in the assay with RPMI 8226 cells (Homo sapiens). In addition, the “IC50 ratio between resistant and non-resistant cells” value with MES-SA/DX5 cells is reported as 3.684; with N6/ADR cells it was 10.909; with MCF7-VP cells, 2.821; in the assay on RPMI-DOX40 cells, more than 5.263; with NCI-H69 VCR/R cells it was more than 41.667; in the assay with MM1.R cells it was 1.063. Further, the “IC50 ratio between resistant and non-resistant cells” value is recorded as 0.158 in the assay with RPMI-MR20 cells, more than 2.105 in the assay with RPMI-LR5 cells and 77.000 in the assay with A2780ADR cells. In addition, the “effectiveness” value with MES-SA/DX5 cells is reported as “less effective in the subline overexpressing PgP”. Further, the “sensitivity” value with N6/ADR cells is “sensitive to PgP”. The “resistance of cells to treatment” value in the assay with NCI-H69 VCR/R cells (NCI-H69 VCR/R lung carcinoma cells) and in the assay with A2780ADR cells (A2780ADR ovary carcinoma cells) was “resistant to vincristine” in each case.

The IC50 is the concentration that gives 50% inhibition.
